Measurements published in patent US20150079000A1, “Labelled Quinoxaline Derivatives as Multimodal Radiopharmaceuticals and Their Precursors” (INSTITUT NATIONAL DE LA SANTET DE LA RECHERCHE MEDICALE, priority 2012, published 2015).

Legend:
[1] = radiochemical stability of the radiotracer after preparation; format: physicochemical
[2] = test system: B16 murine melanoma tumours; test: Ex vivo biodistribution of [18F]-labelled compounds; format: in vivo, C57BL/6J mice
Protocol: (§1) All our studies were performed in accordance with French and European Economic Community (86-609, EEC) guidelines for care of laboratory animals. Protocols were performed under the authorization of the French Direction des Services Veterinaires (authorization no. CE 86-12). Male C57BL/6J mice were originating from Charles River laboratories and maintained at 21° C. with a 12 h/12 h light/dark cycle, fed with a breeding diet (diet A04 from Safe, Villemoisson, France) and received water ad libitum. For transplantation B16BL6 cell suspension were grown in a monolayer culture to confluence, after which cells were trypsinized, washed with phosphate buffer saline (PBS) and they were resuspended in PBS. Mice were anesthetized by isoflurane (4% for induction and 2±0.5% for maintaining in oxygen flux) inhalation. The primary tumour model was induced by subcutaneous injection of 3×10^5 melanoma B16B16 cells in 0.1 mL on the right shoulder of mice.
Ex vivo biodistribution studies: An ex vivo biodistribution study was performed for better comparison of [^18F](1) and [^18F](5). Experimentations were undertaken at day-10 or day-14 after cell inoculation (n=3-6/group). […] Tumours and major organs and tissues were promptly excised, harvested, weighted and their radioactivity counted using a calibrated γ-counter with a 400 to 600 keV energy window. After radioactive decay correction, results were expressed as percentage of injected dose per gram of tissue (% ID/g).

[3] = octanol/water (PBS buffer) partition coefficient (log D); format: physicochemical
[4] = [18F](1) stability study on ex vivo extracts; format: in vivo, mice
Protocol: Six primary melanoma bearing mice were intravenously injected with 18 MBq of [^18F](1) and sacrificed 30 min, 1 h and 2 h after tracer injection. To determine the metabolic stability of [^18F](1), blood, tumour, eyes, liver and urine samples were collected. Blood was immediately centrifuged for 5 min at 3,000 rpm and plasma directly investigated by analytical HPLC. Other organs were pooled and homogenized using GentleMACS™ dissociator (Miltenyi Biotec, Bergisch Gladbach, Germany), suspended in 5 mL of methanol/NH4OH 99.8:0.2 and centrifuged for 5 min at 3,000 rpm. The extraction efficiency was determined by measuring the radioactivity of supernatants and precipitates. Supernatants were passed through a 0.22 μm Millipore filter and then concentrated to a volume between 200 and 500 μL before injection (duplicate) onto the analytical HPLC (Waters Symmetry® C18; Gradient elution: 60% to 90% MeOH (0.4% NH4OH) in water (0.4% NH4OH) (10 min), then 60% for 7 min).

B16BL6 tumour = test: PET imaging in B16BL6 tumour bearing mice; format: in vivo, C57BL/6J mice; details: 1 h p.i., day-15
Protocol: as §1
Whole-body PET scans were acquired 1 h after bolus injection of […] of the appropriate [^18F]-compound in a volume of 0.15 ml via the tail vein. Mice were anesthetized by intraperitoneal (i.p.) administration (200 μL/mouse) of a ketamine-xylazine mixture in saline: ketamine (100 mg/kg, Imalgene™, Rhône Mérieux, Lyon, France) and xylazine (10 mg/kg, Rompun™, Bayer, France) before radiotracer injection and imaged by using a small-animal PET device, eXplore Vista microPET instrument (GE Healthcare). PET images were acquired by using static mode during 20 min. The acquired data were reconstructed using the 2-Dimensional ordered-subsets expectation maximization (OSEM) algorithm and corrected from decay, scatter and randoms. No corrections were applied for partial volume or attenuation.
Regional tracer uptake was quantified by standard region-of-interest (ROI) analysis with eXplore Vista software package. A manual 2D-ROI was drawn around the tumour in each slice where tumour was visible, and on several subsequent coronal planes containing muscle tissue at the forelimb. Results are expressed by percentage of injected dose per gram of tissue (% ID/g).
PET imaging was performed 1 h post injection of tracers in B16BL6 tumour bearing mice at day-15 after tumours cell inoculation.

CCN(CCNC(=O)c1cnc2cc(I)ccc2n1)CCOCCOCCOCC[18F] [[^18F](1)]
radiochemically stable at room temperature after preparation [1]: at least 24 h
% ID/g (tumour) ([2]; 1 h p.i.): 14.05 ± 1.42 % ID/g
% ID/g Blood ([2]; 1 h p.i.): 1.42 ± 0.32 % ID/g
% ID/g Bones ([2]; 1 h p.i.): 1.40±0.10 % ID/g
% ID/g Brain ([2]; 1 h p.i.): 1.82 ± 0.08 % ID/g
% ID/g Ceacum ([2]; 1 h p.i.): 7.27 ± 0.62 % ID/g
% ID/g Colon + faeces ([2]; 1 h p.i.): 7.17 ± 2.93 % ID/g
% ID/g Eyes ([2]; 1 h p.i.): 18.36 ± 4.74 % ID/g
% ID/g Heart ([2]; 1 h p.i.): 2.72 ± 0.18 % ID/g
% ID/g Kidney ([2]; 1 h p.i.): 3.46 ± 0.53 % ID/g
% ID/g Liver ([2]; 1 h p.i.): 2.56 ± 0.22 % ID/g
% ID/g Lung ([2]; 1 h p.i.): 1.86 ± 0.15 % ID/g
% ID/g Muscle ([2]; 1 h p.i.): 1.17 ± 0.12 % ID/g
% ID/g Pancreas ([2]; 1 h p.i.): 2.09 ± 0.42 % ID/g
% ID/g Skin ([2]; 1 h p.i.): 1.44 ± 0.19 % ID/g
% ID/g Small intestine ([2]; 1 h p.i.): 7.58 ± 1.80 % ID/g
% ID/g Spleen ([2]; 1 h p.i.): 3.72 ± 1.49 % ID/g
% ID/g Stomach ([2]; 1 h p.i.): 4.41 ± 1.36 % ID/g
TBR Tumour-to-Blood Ratio ([2]; 1 h p.i.): 10.24 ± 2.83
TBoR Tumour-to-Bone Ratio ([2]; 1 h p.i.): 10.11 ± 1.87
TMR Tumour-to-Muscle Ratio ([2]; 1 h p.i.): 12.12 ± 2.29
% ID/g (tumour) ([2]; 2 h p.i.): 13.07 ± 1.22 % ID/g
% ID/g Blood ([2]; 2 h p.i.): 1.12 ± 0.24 % ID/g
% ID/g Bones ([2]; 2 h p.i.): 1.96 ± 0.51 % ID/g
% ID/g Brain ([2]; 2 h p.i.): 1.39 ± 0.25 % ID/g
% ID/g Ceacum ([2]; 2 h p.i.): 8.94 ± 1.78 % ID/g
% ID/g Colon + faeces ([2]; 2 h p.i.): 6.05 ± 1.72 % ID/g
% ID/g Eyes ([2]; 2 h p.i.): 18.17 ± 3.15 % ID/g
% ID/g Heart ([2]; 2 h p.i.): 2.14 ± 0.33 % ID/g
% ID/g Kidney ([2]; 2 h p.i.): 2.18 ± 0.43 % ID/g
% ID/g Liver ([2]; 2 h p.i.): 1.88 ± 0.34 % ID/g
% ID/g Lung ([2]; 2 h p.i.): 1.65 ± 0.11 % ID/g
% ID/g Muscle ([2]; 2 h p.i.): 0.92 ± 0.15 % ID/g
% ID/g Pancreas ([2]; 2 h p.i.): 1.33 ± 0.28 % ID/g
% ID/g Skin ([2]; 2 h p.i.): 1.51 ± 0.53 % ID/g
% ID/g Small intestine ([2]; 2 h p.i.): 4.28 ± 1.18 % ID/g
% ID/g Spleen ([2]; 2 h p.i.): 2.88 ± 2.11 % ID/g
% ID/g Stomach ([2]; 2 h p.i.): 2.48 ± 0.88 % ID/g
TBR Tumour-to-Blood Ratio ([2]; 2 h p.i.): 12.19 ± 3.32
TBoR Tumour-to-Bone Ratio ([2]; 2 h p.i.): 7.13 ± 2.21
TMR Tumour-to-Muscle Ratio ([2]; 2 h p.i.): 14.46 ± 2.62
% ID/g (tumour) ([2]; 3 h p.i.): 11.55±1.24 % ID/g
% ID/g Blood ([2]; 3 h p.i.): 0.80 ± 0.07 % ID/g
% ID/g Bones ([2]; 3 h p.i.): 3.27 ± 0.70 % ID/g
% ID/g Brain ([2]; 3 h p.i.): 1.37 ± 0.35 % ID/g
% ID/g Ceacum ([2]; 3 h p.i.): 10.79 ± 1.54 % ID/g
% ID/g Colon + faeces ([2]; 3 h p.i.): 8.09 ± 5.04 % ID/g
% ID/g Eyes ([2]; 3 h p.i.): 17.96 ± 2.73 % ID/g
% ID/g Heart ([2]; 3 h p.i.): 2.32 ± 0.50 % ID/g
% ID/g Kidney ([2]; 3 h p.i.): 2.19 ± 0.36 % ID/g
% ID/g Liver ([2]; 3 h p.i.): 1.99 ± 0.45 % ID/g
% ID/g Lung ([2]; 3 h p.i.): 1.60 ± 0.09 % ID/g
% ID/g Muscle ([2]; 3 h p.i.): 0.81 ± 0.10 % ID/g
% ID/g Pancreas ([2]; 3 h p.i.): 1.33 ± 0.35 % ID/g
% ID/g Skin ([2]; 3 h p.i.): 1.05 ± 0.12 % ID/g
% ID/g Small intestine ([2]; 3 h p.i.): 3.91 ± 1.05 % ID/g
% ID/g Spleen ([2]; 3 h p.i.): 1.87 ± 0.38 % ID/g
% ID/g Stomach ([2]; 3 h p.i.): 2.81 ± 2.23 % ID/g
TBR Tumour-to-Blood Ratio ([2]; 3 h p.i.): 14.43±1.75
TBoR Tumour-to-Bone Ratio ([2]; 3 h p.i.): 3.70 ± 1.17
TMR Tumour-to-Muscle Ratio ([2]; 3 h p.i.): 14.46±3.06
in vivo defluorination ([2]; 3 h p.i.): Partial in vivo defluorinations
octanol/water (PBS buffer) partition coefficient (log D) [3]: 1.52±0.03
% unchanged [18F](1) ([4]; Black, Blood, 30 min): 15.2%
% unchanged [18F](1) ([4]; Black, Eyes, 1 h): 100%
% unchanged [18F](1) ([4]; Black, Eyes, 2 h): >99%
% unchanged [18F](1) ([4]; Black, Liver, 1 h): <10%
% unchanged [18F](1) ([4]; Black, Liver, 2 h): <20%
% unchanged [18F](1) ([4]; Black, Tumour, 1 h): >99%
% unchanged [18F](1) ([4]; Black, Tumour, 2 h): 100%
% unchanged [18F](1) ([4]; Black, Urine, 1 h): 0.1%
% unchanged [18F](1) ([4]; Black, Urine, 2 h): 0.0%
% unchanged [18F](1) ([4]; Nude, Blood, 30 min): 3.0%
% unchanged [18F](1) ([4]; Nude, Liver, 2 h): <10%
% unchanged [18F](1) ([4]; Nude, Tumour, 1 h): >99%
% unchanged [18F](1) ([4]; Nude, Tumour, 2 h): >99%
% unchanged [18F](1) ([4]; Nude, Urine, 1 h): 2.7%
% unchanged [18F](1) ([4]; Nude, Urine, 2 h): 1.4%
eyes uptake (B16BL6 tumour): 10.50±2.95 % ID/g
intestine uptake (B16BL6 tumour): 4.07±1.39 % ID/g
muscles activity (B16BL6 tumour): 1.37±0.37 % ID/g
pigmented spleen uptake (B16BL6 tumour): 7.38±0.73 % ID/g
tumour uptake (B16BL6 tumour): 14.33±2.11 % ID/g
tumour/muscle ratio (B16BL6 tumour): 11.04±2.87
